Measured values: US5618726A, “Biodegradable azo dyes” (priority 1994, dated 1997)

What was measured:
[1] = tested on: Streptomyces chromofuscus; assay: Mineralization of 14C-labeled dyes by shaken cultures; type: cell-based
Experimental: (§1) Agitated cultures containing 100,000 to 150,000 dpm of azo dye at a concentration of 200 mg/liter for P. chrysosporium and 50 mg/liter for S. chromofuscus were incubated at 37° C. for 20 days with shaking at 200 rpm. For each mineralization experiment six replicates-per-culture were run for P. chrysosporium and three replicates-per-culture for S. chromofuscus. Each culture flask contained a CO2 trap consisting of a small glass cup connected to the bottom of the rubber stopper. The cup contained 1 ml of 1N NaOH. Samples were taken every 2 days, and after each sampling cultures were flushed with 100% oxygen for 30 s. At the sampling time, the stopper was removed and the NaOH containing trapped CO2 was transferred to a 20-ml scintillation vial, and the cup was then rinsed twice with 1 ml of water. Two ml of rinse water were also transferred to the vial. Finally, 10 ml of Ecolite scintillation cocktail (ICN Biochemicals Inc., Irvine, Calif.) were added to each vial. Vials, after mixing, were stored in the dark for 24 h. The cpm of trapped radioactivity was then determined in a Packard Tri-Carb liquid scintillation analyzer, Model 1500, using the ^14 C quench standards and SIS numbers.
(§2) The removal of radioactivity from the media was determined by measuring the amount of ^14 C label in 0.1 ml of the medium at time 0 and 21 days for each culture. Uninoculated cultures were used as evaporation controls. […] At the end of each mineralization experiment, culture broths were acidified with 5 ml of 1M H3 PO4, fresh 1N NaOH was added to the trap, and the cultures were shaken overnight. No additional releases of ^14 CO2 were observed. The radioactivity assimilated by the cells was measured by solubilizing biomass harvested from each 21-day-old culture in an equal volume of hyamine hydroxide solution. Before solubilization, cells were washed three times with 50 ml of distilled water to remove adsorbed dyes. Ecolite 10 ml was added to the mixture, which was vortexed vigorously. To increase counting efficiency, the solution of biomass-hyamine-scintillation cocktail was further diluted 10 to 20 times with fresh Ecolite before counting.

[2] = tested on: Phanerochaete chrysosporium; assay: Substrate removal / decolorization by P. chrysosporium culture; type: cell-based; conditions: for % Decolorization, P. chrysosporium: 14 days
Experimental: Environ. Microbiol., 1981, 42:290-296), with the addition of 75 mg adenine (6-aminopurine) and 27 mg L-phenylalanine-per-liter. This addition accelerated the growth of the fungus without inhibiting ligninase activity. […] […] Cultures were incubated at 37° C. for 7 to 15 days with shaking (250 rpm). Solid agar media were also employed.

S. diastaticus A12 = type: cell-based; conditions: streptomyces diastaticus a12 culture, 336 h
Source text: (§3) Microbiol., 1984, 130:2905-2913.
(§4) Replicate sterile controls also were run in each experiment.

S. rochei A10 = type: cell-based; conditions: streptomyces rochei a10 culture, 336 h
Source text: as §3, §4

S. diastaticus A13 = type: cell-based; conditions: streptomyces diastaticus a13 culture, 336 h
Source text: as §3, §4

[3] = tested on: S. chromofuscus A11 extracellular peroxidase; assay: Oxidation of azo dyes by S. chromofuscus A11 crude enzyme preparation; type: biochemical, Streptomyces chromofuscus A11; conditions: pH 8, 37° C., H2O2
Experimental: Environ. Microbiol., 1988, 54:3057-3063. […] Microbiol. Biotechnol., 34:661-667. Incubation took place at 37° C. with shaking at 250 rpm. The culture supernatant was collected after 48 h incubation, and vacuum-filtered through Whatman no. 1 filter paper. The filtrate was concentrated approximately 40- to 50-fold by ultrafiltration through an Amicon ultrafiltration stirred cell (series no. 8000, Amicon Corp.) with a disc PM-10 filter (diameter, 76 mm). Protein in the concentrated filtrate was then precipitated from solution with 80% ammonium sulfate. The precipitate was collected by centrifugation (15 min, 10,000 rpm). The pellet was resuspended in 10 ml of 20 mM HEPES buffer (pH 8) and dialyzed overnight against the same buffer at 4° C. These preparations were then stored in 1-ml aliquots at -20° C. until used. Before using, the preparation was filtered through a NAP-25 Sephadex G-25 disposable column (Pharmacia) in order to separate a yellowish protein fraction from a pink low-molecular-weight fraction. The yellowish fraction was used as the source of enzyme. […] The reaction was started with the addition of 100 μl of 50 mM H2 O2 and was followed for 1 min at 37° C. Controls were run with no addition of H2 O2 or with the addition of the hemeperoxidase inhibitor KCN (final concentration 25 μM).

ligninase = assay: Oxidation of dyes by P. chrysosporium ligninase (crude preparation); type: biochemical, Phanerochaete chrysosporium; conditions: crude enzyme, conditions specific for ligninase
Experimental: The peroxidase assay was carried out using a composition having a final volume of 1.0 ml. The reaction mixture contained 250 μl of 100 mM HEPES buffer (pH 8), 500 μl of 10 mM 2,4-dichlorophenol, 100 μl of 1 mM aminoantipyrine, 50 μl enzyme preparation and 100 μl 50 mM H2 O2. The reaction was initiated by the addition of hydrogen peroxide at 37° C. One unit of peroxidase activity was expressed as the amount of enzyme required for an increase of one absorbance-unit-per-minute at 510 nm. Assays of manganese peroxidase and of ligninase from P. chrysosporium were carried out as previously described by Paszczynski et al in "Manganese peroxidase of Phanerochaete chrysosporium: Purification," Methods Enzymol. 161:264-270, incorporated herein by reference. […] Biophys., 1986, 44:750-765. Preparation and assay of ligninase and manganese peroxidase from these P. chrysosporium cultures were carried out as previously reported by Paszczynski, et al., Methods Enzymol., 1988, 161:264-270. […] Purification," Methods Enzymol. 161:264-270. […] Cycle time was 30 seconds with the last measure after 15 minutes. […] The reaction conditions were the same as for acid yellow 9. No decolorization of the synthesized dyes by ligninase was detected.

S. chromofuscus A11 = conditions: for Degradation (%) after Streptomyces cultivation, strain A11: streptomyces chromofuscus a11 culture, 336 h; for Decolorization of growth medium by S. chromofuscus A11: both 50 and 100 ppm
Experimental: as §3, §4
The Streptomyces were grown on the same media and under the same conditions as previously described. […] Thus, the spectrophotometric assays for substrates 1-12 were carried out at their specific isobastic points. Degradation was calculated as percent of substrates removed from culture broth, considering the evaporation factor (around 10%).

Mn(II)-peroxidase = assay: Oxidation of dyes by P. chrysosporium Mn(II)-peroxidase; type: biochemical, Phanerochaete chrysosporium; conditions: crude enzyme, conditions specific for Mn(II)-peroxidase
Experimental: The peroxidase assay was carried out using a composition having a final volume of 1.0 ml. The reaction mixture contained 250 μl of 100 mM HEPES buffer (pH 8), 500 μl of 10 mM 2,4-dichlorophenol, 100 μl of 1 mM aminoantipyrine, 50 μl enzyme preparation and 100 μl 50 mM H2 O2. The reaction was initiated by the addition of hydrogen peroxide at 37° C. One unit of peroxidase activity was expressed as the amount of enzyme required for an increase of one absorbance-unit-per-minute at 510 nm. Assays of manganese peroxidase and of ligninase from P. chrysosporium were carried out as previously described by Paszczynski et al in "Manganese peroxidase of Phanerochaete chrysosporium: Purification," Methods Enzymol. 161:264-270, incorporated herein by reference. […] Biophys., 1986, 44:750-765. Preparation and assay of ligninase and manganese peroxidase from these P. chrysosporium cultures were carried out as previously reported by Paszczynski, et al., Methods Enzymol., 1988, 161:264-270. […] Purification," Methods Enzymol. 161:264-270. […] Cycle time was 10 seconds, with the last measure after three minutes of incubation.

[4] = target: T1, horseradish peroxidase type II (Armoracia rusticana, UniProt P00433); assay: Oxidation of azo dyes by horseradish peroxidase preparation; type: biochemical; conditions: pH 8, 37° C., H2O2
T1 sequence (P00433 31-338): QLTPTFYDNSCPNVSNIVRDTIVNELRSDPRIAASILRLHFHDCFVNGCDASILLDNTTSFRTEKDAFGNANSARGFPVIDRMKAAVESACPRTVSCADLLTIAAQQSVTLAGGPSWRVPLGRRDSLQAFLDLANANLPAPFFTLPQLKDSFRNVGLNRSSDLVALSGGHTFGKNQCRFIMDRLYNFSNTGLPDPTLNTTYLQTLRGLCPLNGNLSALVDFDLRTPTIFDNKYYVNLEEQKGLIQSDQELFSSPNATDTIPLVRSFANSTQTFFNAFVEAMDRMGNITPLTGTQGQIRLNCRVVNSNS
Experimental: The reaction was started with the addition of 100 μl of 50 mM H2 O2 and was followed for 1 min at 37° C. Controls were run with no addition of H2 O2 or with the addition of the hemeperoxidase inhibitor KCN (final concentration 25 μM).

P. chrysosporium = assay: Mineralization of 14C-labeled dyes by shaken cultures; type: cell-based, Phanerochaete chrysosporium; conditions: 21 days' growth, 200 mg/liter
Experimental: as §1
Either a charcoal-containing polyurethane sponge (Bio-Rad Laboratories, Richmond, Calif.) or 2-methoxyethanol was used to trap volatile organic compounds released during mineralization experiments. The sponge (1 cm^3) replaced the 1N NaOH solution in the small glass cap attached to the rubber stopper; other conditions were as before for the ^14 CO2 experiments. For scintillation counting, the charcoal sponges were dissolved in 1 ml of hyamine hydroxide contained in scintillation vials (1M solution in methanol; NEN Research Products, Boston, Mass.) held at 55° C. for 2 h. Ten ml of Ecolite scintillation cocktail were then added and the cpm was measured.
In the second procedure, cultures with CO2 traps were flushed with oxygen for 10 min, and the organic volatiles present were trapped in 10 ml of 2-methoxyethanol mixed with 10 ml Ecolite.
as §2

[5] = beginning concentration 100 ppm
[6] = beginning concentration 150 ppm
[7] = beginning concentration 200 ppm
[8] = beginning concentration 300 ppm

Row | Compound | Concentration of substrate after ten days cultivation with P. chrysosporium [2, 5] [ppm] | Concentration of substrate after ten days cultivation with P. chrysosporium [2, 6] [ppm] | Concentration of substrate after ten days cultivation with P. chrysosporium [2, 7] [ppm] | Concentration of substrate after ten days cultivation with P. chrysosporium [2, 8] [ppm] | % Decolorization, P. chrysosporium ([2]; initial concn 150 ppm) [%] | % Decolorization, P. chrysosporium ([2]; initial concn 300 ppm) [%] | Degradation (%) after Streptomyces cultivation, strain A12 (S. diastaticus A12) [%] | Degradation (%) after Streptomyces cultivation, strain A10 (S. rochei A10) [%] | Degradation (%) after Streptomyces cultivation, strain A13 (S. diastaticus A13) [%] | Oxidation rate of azo dyes, S. chromofuscus peroxidase [3] [μmoles per minute per ml] | Oxidation rate of azo dyes, P. chrysosporium Ligninase (ligninase) [μmoles per minute per ml] | Degradation (%) after Streptomyces cultivation, strain A11 (S. chromofuscus A11) [%] | Oxidation rate of azo dyes, P. chrysosporium Mn-peroxidase (Mn(II)-peroxidase) [μmoles per minute per ml] | Oxidation rate of azo dyes, Horseradish peroxidase [4] [μmoles per minute per ml] | Decolorization of growth medium by S. chromofuscus A11 (S. chromofuscus A11) | further results
1 | COc1cc(N=Nc2ccc(N=N[14c]3[14cH][14cH][14c](S(=O)(=O)O)[14cH][14cH]3)cc2S(=O)(=O)O)ccc1O [compound 35] |  |  |  |  |  |  |  |  |  |  |  |  |  |  |  | Mineralization by the streptomycetes ([1]; 21-day incubation): mineralized
2 | O=S(=O)(O)c1ccc(N=Nc2ccc(O)c(Cl)c2)cc1 [compound 13] | 7.734 | 20.776 | 28.216 | 20.096 | 92 | 88 | 1 | 2 | 1 | 0.13 | 0.88 | 5 | 0.26 | 0.10 |  | 
3 | CCC(C)c1cc(N=Nc2ccc(S(=O)(=O)O)cc2)ccc1O (centres unmarked) [compound 10] | 8.135 | 15.279 | 46.588 | 42.897 | 90 | 92 | 7 | 11 | 6 | 0.78 | 0.51 | 16 | 2.86 | 0.35 | significantly decolorized | 
4 | COc1cc(C)cc(N=Nc2ccc(S(=O)(=O)O)cc2)c1O [compound 11] | 6.795 | 14.416 | 30.075 | 21.765 | 70 | 34 |  | 4 |  | 0.33 | 1.28 | 9 | 1.06 | 0.15 |  | 
5 | O=S(=O)(O)c1ccc(N=Nc2ccc(O)c3ccccc23)cc1 [compound 32] |  |  |  |  |  |  |  |  |  | 2.62 | 0.23 |  | 4.62 | 3.91 | significantly decolorized | 
6 | O=S(=O)(O)c1ccc(N=Nc2ccc(O)c3ccccc23)cc1 [Azo dye 32, 4-(4-hydroxy-naphthylazo)-benzenesulfonic acid] |  |  |  |  |  |  |  |  |  |  |  |  |  |  |  | Percentage of radioactivity recovered in CO2, Streptomyces chromofuscus ([1]; 21 days' growth, 50 mg/liter): 1.1%; Percentage of radioactivity recovered in biomass (cells), Streptomyces chromofuscus ([1]; 21 days' growth, 50 mg/liter): 7.0%; Percentage of radioactivity removed from the medium, Streptomyces chromofuscus ([1]; 21 days' growth, 50 mg/liter): 22.0%; Percentage of radioactivity recovered in CO2, P. chrysosporium (P. chrysosporium): 19.7%; Percentage of radioactivity recovered in biomass (cells), P. chrysosporium (P. chrysosporium): 4.0%; Percentage of radioactivity removed from the medium, P. chrysosporium (P. chrysosporium): 29.6%
